Test results published in patent US12584105B2, “Autologous cell replacement therapy for Parkinson's disease” (The McLean Hospital Corporation, priority 2019, dated 2026).

Key:
[1] = tested on: voltage-gated Na+ channels; type: cell-based, human
[2] = tested on: undifferentiated C4 cells (human iPSCs); experiment: Quercetin treatment of undifferentiated hiPSCs (Trypan blue, hemocytometer); type: cell-based
Experimental: To test the effect of Quercetin on human iPSC removal, human iPSCs were plated on 6 well plates. Cells were treated with each concentration of Quercetin (5, 10, 20, 40, and 100 μM) for 2, 6, 16, and 24 hours. After each time point, Quercetin containing medium was replaced with fresh medium and cells cultured for 48 hours from the initial Quercetin treatment time. Cells were dissociated using TrypLE and cell viability was measured using Trypan blue exclusion and hemocytometer.
The most critical issue for hPSC-based cell therapy is to establish safety by removing residual undifferentiated cells with neoplastic potential. Based on the previous finding that BIRC5 (encoding survivin) is highly expressed in hPSCs compared to somatic cells (40), we hypothesized that chemical inhibition of survivin would selectively eliminate remaining undifferentiated hiPSCs. However, since survivin is known to be important for neuronal precursors (41, 42), it is important to test whether this strategy interferes with mDAP generation. Among survivin inhibitors (40), we chose the flavonoid quercetin (3,3′,4′,5,7-pentahydroxyflavone) because this natural compound is present at high concentration in commonly consumed vegetables and fruits (43). We first treated 100,000 undifferentiated C4 cells with 5, 10, 20, 40, and 100 μM quercetin for 2, 6, 16, and 24 hours. […]

[3] = tested on: D9 C4 cells (mostly neuronal precursors); experiment: Quercetin treatment of D9 differentiating cells, outcome on D11; type: cell-based, human; details: different concentrations (5-100 μM) for 16 hours on D9
Text: The most critical issue for hPSC-based cell therapy is to establish safety by removing residual undifferentiated cells with neoplastic potential. Based on the previous finding that BIRC5 (encoding survivin) is highly expressed in hPSCs compared to somatic cells (40), we hypothesized that chemical inhibition of survivin would selectively eliminate remaining undifferentiated hiPSCs. However, since survivin is known to be important for neuronal precursors (41, 42), it is important to test whether this strategy interferes with mDAP generation. Among survivin inhibitors (40), we chose the flavonoid quercetin (3,3′,4′,5,7-pentahydroxyflavone) because this natural compound is present at high concentration in commonly consumed vegetables and fruits (43). We first treated 100,000 undifferentiated C4 cells with 5, 10, 20, 40, and 100 μM quercetin for 2, 6, 16, and 24 hours. After washing with fresh media, cells were further cultured for a total of 48 hours. […] To test whether quercetin affects survival of mDAPs, we treated D9 C4 cells (mostly neuronal precursors) with different concentrations of quercetin for 16 hours and examined outcome on D11.

[4] = tested on: undifferentiated C4 cells; experiment: Colony forming assay (AP staining) of C4 cells diluted among hDFs; type: cell-based, human
Experimental: (§1) For colony forming assay, each cell dilution was cultured for 6 days in E8 medium and pluripotent colonies were identified by AP staining. For the quercetin removal of undifferentiated cells, cells were treated with 40 μM quercetin for 16 hours and cultured in fresh E8 medium. For fluorescence activated cell sorting (FACS), C4 cells were dissociated using TrypLE and filtered through a 70 μm cell strainer. Single cell suspensions were first fixed with 4% formaldehyde for 10 mins and suspended in permeabilization buffer for 15 min on ice. After blocking for 30 min, cells were incubated with primary labeled antibodies (PE conjugated anti SSEA-4, TRA-1-60) for 1 hour on ice in the dark. After washing with PBS with 1% FBS, FACS analysis was performed using a BD Accuri C6 system (BD Bioscience) and data analyses were carried out according to manufacturer's instructions. Fluorochrome matched isotype controls were used and subtracted during analysis. For qRT-PCR assay, total RNA from all dilutions was extracted and subjected to qRT-PCR to determine OCT4 cycle times (Ct) value. OCT4 copy numbers were calculated from the equation curve that was generated from qRT-PCR of purified OCT4 partial sequence. Then, OCT4 copy numbers were plotted against PSC numbers.

[5] = tested on: undifferentiated C4 cells; experiment: OCT4 qRT-PCR assay for undifferentiated cells; type: cell-based, human; details: D14, D21 and D28 after quercetin treatment (40 μM at D9 for 16 hours)
Experimental: as §1

[6] = tested on: NANOG+ undifferentiated cells; experiment: NANOG immunostaining of D14 cells; type: cell-based, human; details: D14, with quercetin treatment
Experimental: hiPSC derived dopaminergic neurons were washed with phosphate-buffered saline (PBS) (with Ca^2+ and Mg^2+) and fixed with 4% formaldehyde in PBS (pH 7.4) for 10 mins. Cells were incubated for 1 hr in blocking solution (0.3% Triton X-100 and 1% horse serum in PBS) at room temperature. Cells were incubated with primary antibodies in PBS containing 0.3% Triton X-100 and 1% horse serum overnight. Cells were then incubated with the proper fluorescence-conjugated secondary antibodies with Hoechst 33342 for nuclei staining at room temperature for 1 hr. Cell images were obtained by confocal microscopy (KEYENCE, Osaka, Japan). Data regarding specific cell populations were determined from microscopic images using ImageJ software (11). To measure apoptotic cells, cells were stained for cleaved caspase 3, an apoptotic marker, and Hoechst 33342, a DNA-binding nuclear dye. After staining with Hoechst 33342, compacted chromatin is brighter than in normal cells, and the condensed nuclei were counted by fluorescence microscopy. Data regarding specific cell populations were determined from microscopic images by ImageJ software.

undifferentiated iPSCs = experiment: Residual undifferentiated iPSCs in final cell product (immunostaining and real-time PCR); type: cell-based, human; details: final cell products at day 28 after quercetin
Text: After treatment with quercetin, the final cell products (at day 28) had no detectable remaining undifferentiated iPSCs (with an upper boundary of the 95% confidence interval of <1 undifferentiated cell per 1 billion day-28 differentiated cells), on the basis of immunostaining and real-time polymerase chain reaction-based assays. Serotonergic neurons, a potential cause of graft-induced dyskinesia (Olanow et al. Ann Neurol 2003; 54:403-14), were not detected in the final product.

Structure (SMILES)	transient inward currents evoked by voltage pulses from −70 mV to +40 mV [1]	efficiency of elimination of undifferentiated hiPSCs [2] [%]	viable cells ([2]; 100,000 undifferentiated C4 cells, >20 μM quercetin for >16 hours, cultured for a total of 48 hours)	cell viability and cell number at D11 [3]	AP+ colonies ([4]; 40 μM quercetin for 16 hours, up to 10^5 hiPSCs plated, 6 days culture)	efficacy of quercetin treatment ([4]; colony forming assay) [%]	calculated number of undifferentiated cells [5]	NANOG+ cells [6]	remaining undifferentiated iPSCs, upper boundary of the 95% confidence interval (undifferentiated iPSCs)
NC1=N[C@H](O)[C@H]2[C@H]3O[C@]4(O)O[C@@H]([C@@H](O)[C@@]2(N1)[C@@H]4O)[C@]3(O)CO [TTX, tetrodotoxin]	completely blocked								
O=c1c(O)c(-c2ccc(O)c(O)c2)oc2cc(O)cc(O)c12 [quercetin, 3,3′,4′,5,7-pentahydroxyflavone]		> 99.99	undetectable	Neither cell viability nor number was affected	no AP′ colonies detected	> 99.99	less than 1 cell per 100,000 cells	none were detected	< 1 undifferentiated cell per 1 billion day-28 differentiated cells
